Source: patent US10961279B2 (priority 2011, dated 2021)

System: CTLL-2 cells
Type: cell-based

## DRGWGNGCGDFGKG [FLV FUS non-IS]
  effect of the dimeric peptides on proliferation of CTLL-2 cells: non-immune suppressive

## DRGWGNGCGLFGKG [monomeric peptide]
  inhibition of proliferation of CTLL-2 cells: no effect

## GLFGAIAGFIENGWEGCGGEKEKEK [wt INF]
  effect of the dimeric peptides on proliferation of CTLL-2 cells (synthesis of new DNA): inhibits synthesis of new DNA

## PALSTGLIHLHQNIVDVQCGGEKEKEK
  inhibition of proliferation of T-cells: inhibits proliferation of T-cells in a concentration dependent manner
